# In patent US8962608B2, “Cycloalkylnitrile pyrazole carboxamides as janus kinase inhibitors” (Merck Sharp & Dohme Corp., priority 2011, dated 2015):
# Target: JAK1 (recombinant purified GST-tagged catalytic domain) (Homo sapiens (Human), UniProt P23458)
# Test: biochemical
# 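Also: biochemical assay with HTRF read-out.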
# Chain of JAK1 (recombinant purified GST-tagged catalytic domain) (P23458 875-1153): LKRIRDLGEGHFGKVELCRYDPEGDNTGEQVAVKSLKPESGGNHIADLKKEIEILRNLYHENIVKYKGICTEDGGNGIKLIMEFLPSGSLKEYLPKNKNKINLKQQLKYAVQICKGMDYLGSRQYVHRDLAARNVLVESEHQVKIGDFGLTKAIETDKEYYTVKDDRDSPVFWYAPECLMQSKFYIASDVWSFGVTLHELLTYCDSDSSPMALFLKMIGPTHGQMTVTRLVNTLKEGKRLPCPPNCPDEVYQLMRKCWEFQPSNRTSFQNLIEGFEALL
row,IC50,SMILES
1,15 nM,"N#C[C@H]1C[C@@](O)(C2CC2)CC[C@@H]1n1cc(C(N)=O)c(Nc2ccc(Cl)cc2)n1 (single isomer, unassigned) [Example 32-14, 3-[(4-chlorophenyl)amino]-1-[(1S,2S,4R or 1R,2R,4S)-2-cyano-4-cyclopropyl-4-hydroxycyclohexyl]-1H-pyrazole-4-carboxamide]"
2,1 nM,"CC(C)(O)C1CC(CN[C@H]2CC[C@@H](n3cc(C(N)=O)c(Nc4ccc(C(F)(F)F)cc4)n3)[C@H](C#N)C2)C1 (single isomer, unassigned) [Example 30-4, 1-[(1R,2R,4S or 1S,2S,4R)-2-cyano-4-({[3-(1-hydroxy-1-methylethyl)cyclo-butyl]methyl}amino)cyclo-hexyl]-3-{[4-(trifluoro-methyl)phenyl]amino}-1H-pyrazole-4-carboxamide]"
3,3 nM,"N#C[C@@H]1C[C@H](C(=O)N2CC(F)(F)C2)CC[C@H]1n1cc(C(N)=O)c(Nc2ccc(Cl)cc2)n1 (single isomer, unassigned) [Example 35-15, 3-[(4-chlorophenyl)amino]-1-{(1R,2R,4R or 1S,2S,4S)-2-cyano-4-[(3,3-difluoroazetidin-1-yl)carbonyl]cyclohexyl}-1H-pyrazole-4-carboxamide]"
4,9 nM,"CC1(CNC(=O)[C@H]2CC[C@H](n3cc(C(N)=O)c(Nc4ccc(Cl)cc4)n3)[C@@H](C#N)C2)COC1 (single isomer, unassigned) [Example 35-31, 3-[(4-chlorophenyl)amino]-1-[(1S,2S,4S or 1R,2R,4R)-2-cyano-4-{[(3-methyloxetan-3-yl)methyl]carbamoyl}cyclohexyl]-1H-pyrazole-4-carboxamide]"
5,12 nM,"N#C[C@H]1C[C@H](NCC(F)(F)F)CC[C@@H]1n1cc(C(N)=O)c(Nc2ccc(Cl)cc2)n1 (single isomer, unassigned) [Example 28-225, 3-[(4-chlorophenyl)amino]-1-{(1S,2S,4R or 1R,2R,4S)-2-cyano-4-[(2,2,2-trifluoroethyl)amino]cyclohexyl}-1H-pyrazole-4-carboxamide]"
6,1 nM,"CC(C)(CF)c1ccc(Nc2nn([C@H]3CC[C@H](O)C[C@@H]3C#N)cc2C(N)=O)cc1 (single isomer, unassigned) [Example 33-21, 1-[(1S,2S,4S or 1R,2R,4R)-2-cyano-4-hydroxycyclohexyl]-3-{[4-(2-fluoro-1,1-dimethylethyl)phenyl]amino}-1H-pyrazole-4-carboxamide]"
7,2 nM,"N#C[C@H]1C[C@@H](O)CC[C@@H]1n1cc(C(N)=O)c(Nc2ccc(Cl)c(F)c2)n1 (single isomer, unassigned) [Example 33-3, 3-[(4-chloro-3-fluorophenyl)amino]-1-[(1S,2S,4S or 1R,2R,4R)-2-cyano-4-hydroxycyclohexyl]-1H-pyrazole-4-carboxamide]"
8,6 nM,"CC(C)NC(=O)O[C@H]1CCC(n2cc(C(N)=O)c(Nc3ccc(F)cc3)n2)[C@@H](C#N)C1 (mixture of isomers) [Example 34-8, (1S,3S,4S and 1R,3R,4R)-4-{4-carbamoyl-3-[(4-fluorophenyl)amino]-1H-pyrazol-1-yl}-3-cyanocyclohexyl propan-2-ylcarbamate]"
9,20 nM,"CN(C)[C@H]1CC[C@H](n2cc(C(N)=O)c(Nc3ccc(F)cc3)n2)[C@@H](C#N)C1 (single isomer, unassigned) [Example 28-129, 1-[(1S,2S,4S or 1R,2R,4R)-2-cyano-4-(dimethylamino)cyclohexyl]-3-[(4-fluorophenyl)amino]-1H-pyrazole-4-carboxamide]"
10,2 nM,"COCC(C)N[C@H]1CCC(n2cc(C(N)=O)c(Nc3ccc(Cl)cc3)n2)[C@@H](C#N)C1 (single isomer, unassigned) [Example 28-238, 3-[(4-chlorophenyl)amino]-1-[(1S,2S,4S or 1R,2R,4R)-2-cyano-4-{[(1S)-2-methoxy-1-methylethyl]amino}cyclohexyl]-1H-pyrazole-4-carboxamide]"
11,0.13 nM,"N#C[C@H]1C[C@@H](N2CC(O)C2)CC[C@@H]1n1cc(C(N)=O)c(Nc2ccc(S(=O)(=O)C(F)(F)F)cc2)n1 (single isomer, unassigned) [Example 28-151, 1-[(1S,2S,4S or 1R,2R,4R)-2-cyano-4-(3-hydroxyazetidin-1-yl)cyclohexyl]-3-({4-[(trifluoro-methyl)sulfonyl]phenyl}amino)-1H-pyrazole-4-carboxamide]"

# Continued, compound first:
row,SMILES,IC50
1,"CN(C)[C@@H]1CC[C@H](n2cc(C(N)=O)c(Nc3ccc(Cl)cc3)n2)[C@@H](C#N)C1 (single isomer, unassigned) [Example 28-125, 3-[(4-chlorophenyl)amino]-1-[(1S,2S,4R or 1R,2R,4S)-2-cyano-4-(dimethylamino)cyclohexyl]-1H-pyrazole-4-carboxamide]",2 nM
2,"N#C[C@H]1C[C@H](O)CCC1n1cc(C(N)=O)c(Nc2ccnc(F)c2)n1 (single isomer, unassigned) [Example 25-21, 1-[(1S,2S,4R or 1R,2R,4S)-2-cyano-4-hydroxycyclohexyl]-3-[(2-fluoropyridin-4-yl)amino]-1H-pyrazole-4-carboxamide]",1 nM
3,"N#C[C@@H]1CCCC[C@@H]1n1cc(C(N)=O)c(Nc2ccc(F)nc2)n1 (racemic) [Example 17-24, 1-[(1S,2R and 1R,2S)-2-cyanocyclohexyl]-3-[(6-fluoropyridin-3-yl)amino]-1H-pyrazole-4-carboxamide]",33 nM
4,"CN([C@H]1CC[C@H](n2cc(C(N)=O)c(Nc3ccc(Cl)cc3)n2)[C@@H](C#N)C1)C(C)(C)C (single isomer, unassigned) [Example 28-6, 1-((1S,2S,4S or 1R,2R,4R)-4-(tert-butyl(methyl)amino)-2-cyanocyclohexyl)-3-((4-chlorophenyl)amino)-1H-pyrazole-4-carboxamide]",0.55 nM
5,"CC(C)NS(=O)(=O)c1ccc(Nc2nn([C@H]3CCCC[C@@H]3C#N)cc2C(N)=O)cc1 (single isomer, unassigned) [Example 17-93, 1-[(1R,2R or 1S,2S)-2-cyanocyclohexyl]-3-({4-[(1-methylethyl)sulfamoyl]phenyl}amino)-1H-pyrazole-4-carboxamide]",0.3 nM
6,"N#C[C@@H]1CC2(CCC1n1cc(C(N)=O)c(Nc3ccnc(F)c3)n1)CC2 (mixture of isomers) [Example 11-7, 1-((5R,6R and 5S,6S)-5-cyanospiro[2.5]octan-6-yl)-3-((2-fluoropyridin-4-yl)amino)-1H-pyrazole-4-carboxamide]",5 nM
7,"CC(C)(C)OC(=O)[C@H]1CCC(n2cc(C(N)=O)c(Nc3ccc(F)cc3)n2)[C@@H](C#N)C1 (mixture of isomers) [Example 7-1, tert-Butyl (1S,3S,4S and 1R,3R,4R)-4-{4-carbamoyl-3-[(4-fluorophenyl)amino]-1H-pyrazol-1-yl}-3-cyanocyclohexanecarboxylate]",17 nM
8,"N#C[C@H]1CCCC[C@@H]1n1cc(C(N)=O)c(Nc2ccc(F)nc2)n1 (single isomer, unassigned) [Example 17-19, 1-[(1S,2S or 1R,2R)-2-cyanocyclohexyl]-3-[(6-fluoropyridin-3-yl)amino]-1H-pyrazole-4-carboxamide]",3 nM
9,"COC(=O)c1ccc(Nc2nn([C@H]3CCCC[C@@H]3C#N)cc2C(N)=O)cn1 (single isomer, unassigned) [Example 17-70, methyl 5-({4-carbamoyl-1-[(1R,2R or 1S,2S)-2-cyanocyclohexyl]-1H-pyrazol-3-yl}amino)pyridine-2-carboxylate]",3 nM
10,"N#C[C@H]1C[C@@H](N2CC(F)C2)CC[C@@H]1n1cc(C(N)=O)c(Nc2ccc(C(F)(F)F)cc2)n1 (single isomer, unassigned) [Example 28-105, 1-[(1S,2S,4S or 1R,2R,4R)-2-cyano-4-(3-fluoroazetidin-1-yl)cyclohexyl]-3-{[4-(trifluoromethyl)phenyl]amino}-1H-pyrazole-4-carboxamide]",3 nM
11,"N#Cc1ccc(Nc2nn([C@H]3CC[C@H](NCC(F)F)C[C@@H]3C#N)cc2C(N)=O)cc1 (single isomer, unassigned) [Example 28-116, 1-{(1S,2S,4S or 1R,2R,4R)-2-cyano-4-[(2,2-difluoroethyl)amino]cyclohexyl}-3-[(4-cyanophenyl)amino]-1H-pyrazole-4-carboxamide]",1 nM
12,"N#C[C@H]1CCCC[C@@H]1n1cc(C(N)=O)c(Nc2ccc([C@@H](O)C(F)(F)F)nc2)n1 (single isomer, unassigned) [Example 17-46, 1-[(1S,2S or 1R,2R)-2-cyanocyclohexyl]-3-({6-[(1R or 1S)-2,2,2-trifluoro-1-hydroxyethyl]pyridin-3-yl}amino)-1H-pyrazole-4-carboxamide]",0.35 nM
13,"CN(C)[C@H]1CCC(n2cc(C(N)=O)c(Nc3ccc(S(=O)(=O)C(F)(F)F)cc3)n2)[C@@H](C#N)C1 (mixture of isomers) [Example 27-8, 1-[(1S,2S,4S and 1R,2R,4R)-2-cyano-4-(dimethylamino)cyclohexyl]-3-({4-[(trifluoromethyl)sulfonyl]phenyl}amino)-1H-pyrazole-4-carboxamide]",0.3 nM
14,"CN(C)[C@H]1CC[C@H](n2cc(C(N)=O)c(Nc3ccc(OC(F)F)cc3)n2)[C@@H](C#N)C1 (single isomer, unassigned) [Example 28-104, 1-[(1S,2S,4S or 1R,2R,4R)-2-cyano-4-(dimethylamino)cyclohexyl]-3-{[4-(difluoromethoxy)phenyl]amino}-1H-pyrazole-4-carboxamide]",0.4 nM
15,"CC(C)(C(=O)O)c1ccc(Nc2nn([C@H]3CCC(N4CCC4)C[C@@H]3C#N)cc2C(N)=O)cc1 (single isomer, unassigned) [Example 28-72, 2-[4-({1-[(1S,2S or 1R,2R)-4-azetidin-1-yl-2-cyanocyclohexyl]-4-carbamoyl-1H-pyrazol-3-yl}amino)phenyl]-2-methylpropanoic acid]",0.45 nM
16,"C[C@H](N[C@H]1CC[C@H](n2cc(C(N)=O)c(Nc3ccc(OC(F)F)nc3)n2)[C@@H](C#N)C1)C1CC1 (single isomer, unassigned) [Example 28-32, 1-[(1S,2S,4S or 1R,2R,4R)-2-cyano-4-{[(1S)-1-cyclopropylethyl]amino}cyclo-hexyl]-3-{[6-(difluoromethoxy)pyridin-3-yl]amino}-1H-pyrazole-4-carboxamide]",5 nM
